Reference: the supplement of paper PMC10307832

What was measured:
Assay in all cases: relative viability (nuclei count vs DMSO), 5 days (fraction); higher = more cells survive
Gemcitabine + OSI-027 = compound: Nc1ccn([C@@H]2O[C@H](CO)[C@@H](O)C2(F)F)c(=O)n1 [Gemcitabine] + COc1cccc2cc(-c3nc([C@H]4CC[C@H](C(=O)O)CC4)n4ncnc(N)c34)[nH]c12 [OSI-027] (partner 0.5 µM)
How it was run: (§1)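 A single step with final 0.05% Triton X-100, 1% formaldehyde and 1 ug/ml Hoechst fixed the cells and stained nuclei 5 days after treatment. Lung cancer cell lines in 1536-well plates had been treated by pin tool the day after seeding with one drug alone or a fixed anchor-drug dose plus five library-drug doses (not always all listed) in √10 steps, and nuclei were counted on 4× images. Relative viability is the ratio of nuclei in treated wells to nuclei in vehicle wells, taken as the median of duplicate plates.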

Gemcitabine + Lapatinib = compound: Nc1ccn([C@@H]2O[C@H](CO)[C@@H](O)C2(F)F)c(=O)n1 [Gemcitabine] + CS(=O)(=O)CCNCc1ccc(-c2ccc3ncnc(Nc4ccc(OCc5cccc(F)c5)c(Cl)c4)c3c2)o1 [Lapatinib] (partner 2 µM)
How it was run: as §1

Gemcitabine + Linsitinib = compound: Nc1ccn([C@@H]2O[C@H](CO)[C@@H](O)C2(F)F)c(=O)n1 [Gemcitabine] + C[C@]1(O)C[C@@H](c2nc(-c3ccc4ccc(-c5ccccc5)nc4c3)c3c(N)nccn32)C1 [Linsitinib] (partner 1 µM)
How it was run: as §1

Gemcitabine + Alpelisib = compound: Nc1ccn([C@@H]2O[C@H](CO)[C@@H](O)C2(F)F)c(=O)n1 [Gemcitabine] + Cc1nc(NC(=O)N2CCC[C@H]2C(N)=O)sc1-c1ccnc(C(C)(C)C(F)(F)F)c1 [Alpelisib] (partner 2 µM)
How it was run: as §1

Cell Line	relative viability (Gemcitabine + OSI-027; first compound 0.001 µM)	relative viability (Gemcitabine + OSI-027; first compound 0.003162 µM)	relative viability (Gemcitabine + OSI-027; first compound 0.01 µM)	relative viability (Gemcitabine + OSI-027; first compound 0.03162 µM)	relative viability (Gemcitabine + OSI-027; first compound 0.1 µM)	relative viability (Gemcitabine + Lapatinib; first compound 0.001 µM)	relative viability (Gemcitabine + Lapatinib; first compound 0.003162 µM)	relative viability (Gemcitabine + Lapatinib; first compound 0.01 µM)	relative viability (Gemcitabine + Lapatinib; first compound 0.03162 µM)	relative viability (Gemcitabine + Lapatinib; first compound 0.1 µM)	relative viability (Gemcitabine + Linsitinib; first compound 0.001 µM)	relative viability (Gemcitabine + Linsitinib; first compound 0.003162 µM)	relative viability (Gemcitabine + Linsitinib; first compound 0.01 µM)	relative viability (Gemcitabine + Linsitinib; first compound 0.03162 µM)	relative viability (Gemcitabine + Linsitinib; first compound 0.1 µM)	relative viability (Gemcitabine + Alpelisib; first compound 0.001 µM)	relative viability (Gemcitabine + Alpelisib; first compound 0.003162 µM)	relative viability (Gemcitabine + Alpelisib; first compound 0.01 µM)	relative viability (Gemcitabine + Alpelisib; first compound 0.03162 µM)	relative viability (Gemcitabine + Alpelisib; first compound 0.1 µM)
HCC-78	0.325	0.312	0.263	0.211	0.229	0.695	0.485	0.146	0.272	0.168	0.532	0.347	0.199	0.189	0.154	0.278	0.241	0.12	0.157	0.13
HCC-366	0.899	1.23	0.478	0.0351	0.0249	0.954	1.19	0.546	0.0287	0.0142	0.722	0.477	0.138	0.0302	0.0117	0.516	0.359	0.0565	0.0184	0.0102
HCC-827	0.802	0.477	0.444	0.159	0.159	0.181	0.177	0.18	0.138	0.126	0.96	0.79	0.546	0.327	0.252	0.895	0.48	0.56	0.391	0.167
HOP-62	0.681	0.557	0.141	0.127	0.0935	0.961	0.863	0.301	0.0724	0.0756	1.07	0.815	0.129	0.0627	0.056	0.829	0.572	0.0893	0.0529	0.061
IA-LM	–	–	–	–	–	–	0.853	0.353	0.124	0.0354	0.768	0.461	0.324	0.149	0.0467	0.789	0.644	0.744	0.0658	0.0561
LC-2-ad	0.817	0.578	0.279	0.195	0.188	0.978	0.917	0.82	0.188	0.111	0.895	0.852	0.553	0.143	0.132	0.901	0.833	0.5	0.0947	0.0966
LCLC-97TM1	0.468	0.524	0.138	0.121	0.116	0.829	0.683	0.178	0.0781	0.0994	0.147	0.159	0.117	0.104	0.136	0.228	0.131	0.115	0.107	0.128
LCLC-103H	0.442	0.449	0.418	0.288	0.296	–	–	–	–	–	1.02	1.21	0.998	0.76	0.509	1	0.878	0.949	1	0.272
LK-2	0.217	0.18	0.167	0.163	0.155	0.977	0.692	0.817	0.329	0.249	0.6	0.485	0.433	0.196	0.156	1.23	–	0.447	0.242	0.251
LOU-NH91	0.709	0.616	0.45	0.252	0.215	0.733	0.72	0.479	0.267	0.276	0.922	0.686	0.547	0.311	0.281	0.726	0.515	0.457	0.316	0.263
LU99A	0.275	0.348	0.307	0.304	0.286	1.15	1.16	0.932	0.974	1	0.601	0.597	0.487	0.576	0.554	0.506	0.576	0.515	0.505	0.481
LXF-289	0.93	0.77	0.236	0.0894	0.105	0.922	0.921	0.783	0.282	0.141	0.957	0.953	0.751	0.147	0.107	1.04	1	0.737	0.123	0.114
NCI-H441	0.583	0.28	0.247	0.165	0.201	–	–	–	–	–	0.513	0.339	0.102	0.11	0.128	0.602	0.327	0.138	0.149	0.12
NCI-H522	0.653	0.463	0.384	1.12	0.393	–	–	–	–	–	–	–	–	–	–	–	–	–	–	–
NCI-H1299	–	–	–	–	–	0.941	1.01	0.962	0.938	0.921	0.987	1.01	0.981	1	0.972	1.04	1.1	1.03	1.05	1.09
NCI-H1648	0.245	–	0.245	0.228	0.276	–	–	–	–	–	–	–	–	–	–	–	–	–	–	–
NCI-H1650	0.501	0.184	0.114	0.137	0.134	0.669	0.706	0.406	0.179	0.17	–	–	–	–	–	–	–	–	–	–
NCI-H1703	–	–	–	–	–	0.898	0.262	0.156	0.164	0.114	0.774	0.228	0.103	0.101	0.132	0.274	0.178	0.107	0.113	0.117
NCI-H2170	0.714	0.662	0.632	0.292	0.136	0.282	0.271	0.244	0.197	0.185	–	–	–	–	–	0.85	0.767	0.412	0.181	0.169
NCI-H2342	0.652	0.629	0.563	0.392	0.381	–	–	–	–	–	–	–	–	–	–	–	–	–	–	–
SW 900	0.526	0.241	0.13	0.0871	0.0793	–	–	–	–	–	–	–	–	–	–	–	–	–	–	–
